Assay results: patent publication US20060293317A1, “Use of non-steroidal progesterone receptor modulators” (priority 2005, published 2006)

Biological target: T1, PR-B progesterone receptor (Homo sapiens, UniProt P06401)
T1 sequence (P06401 1-933): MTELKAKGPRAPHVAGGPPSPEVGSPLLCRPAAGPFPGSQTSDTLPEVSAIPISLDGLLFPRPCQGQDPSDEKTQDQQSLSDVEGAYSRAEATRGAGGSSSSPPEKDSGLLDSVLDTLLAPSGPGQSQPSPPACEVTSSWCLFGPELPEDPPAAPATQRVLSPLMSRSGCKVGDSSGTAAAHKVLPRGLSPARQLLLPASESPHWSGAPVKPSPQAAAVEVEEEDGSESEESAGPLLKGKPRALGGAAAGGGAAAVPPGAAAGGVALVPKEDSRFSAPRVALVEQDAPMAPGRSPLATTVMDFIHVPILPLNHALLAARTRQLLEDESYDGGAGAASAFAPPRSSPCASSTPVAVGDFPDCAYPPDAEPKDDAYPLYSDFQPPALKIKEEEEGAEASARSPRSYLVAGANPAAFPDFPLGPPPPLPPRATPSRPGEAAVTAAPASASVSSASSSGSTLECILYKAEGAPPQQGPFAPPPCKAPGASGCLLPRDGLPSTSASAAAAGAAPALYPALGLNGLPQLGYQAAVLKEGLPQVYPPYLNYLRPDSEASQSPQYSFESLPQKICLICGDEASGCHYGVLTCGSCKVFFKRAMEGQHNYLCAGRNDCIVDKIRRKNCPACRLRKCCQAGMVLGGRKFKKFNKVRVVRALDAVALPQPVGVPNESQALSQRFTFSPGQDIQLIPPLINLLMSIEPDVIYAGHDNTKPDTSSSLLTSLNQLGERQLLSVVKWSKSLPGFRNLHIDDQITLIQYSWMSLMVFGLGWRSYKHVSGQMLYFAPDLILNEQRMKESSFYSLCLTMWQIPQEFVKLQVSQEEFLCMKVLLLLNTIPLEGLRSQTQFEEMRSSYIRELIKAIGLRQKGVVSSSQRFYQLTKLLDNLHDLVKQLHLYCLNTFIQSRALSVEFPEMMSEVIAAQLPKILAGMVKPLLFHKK
Experiment: Antagonism at the PR-B progesterone receptor (transactivation assay)
Format: cell-based
Protocol: Antagonism at the PR-B Progesterone Receptor
The transactivation assay is carried out as described in WO 02/054064.

Antagonistic activity Efficacy (transactivation assay as in WO 02/054064): 100% | IC50 (transactivation assay as in WO 02/054064, read-out: Antagonistic activity IC50): 0.3 nM
SMILES: Cc1noc(=O)c2ccc(NC(=O)C(O)(Cc3ccccc3)CC(C)(C)c3ccccc3)cc12 (centres unmarked) [compound 88]
